≈ marks a conversion by molar mass, not a printed value.
How the values were obtained:
Format in all cases: functional
[1] = tested on: Cryptococcus neoformans; assay: Antimicrobial activity against Cryptococcus neoformans
[2] = tested on: Aspergillus fumigatus; assay: Antimicrobial activity against Aspergillus fumigatus
[3] = tested on: Candida albicans; assay: Antimicrobial activity against Candida albicans

Structure (SMILES)	MIC [1]	MIC [2]	MIC [3]
O=C1c2ccccc2-c2nccc3c2c1nc1ccccc13 [BENZOSAMPANGINE]	1.56 µg/mL (≈ 5.53 µM)	0.39 µg/mL (≈ 1.38 µM)	0.39 µg/mL (≈ 1.38 µM)
C[C@@H]1[C@H](O)[C@@H](C)/C=C/C=C/C=C/C=C/C=C/C=C/C=C/[C@H](O[C@@H]2O[C@H](C)[C@@H](O)[C@H](N)[C@@H]2O)C[C@@H]2O[C@](O)(C[C@@H](O)C[C@@H](O)[C@H](O)CC[C@@H](O)C[C@@H](O)CC(=O)O[C@H]1C)C[C@H](O)[C@H]2C(=O)O [AMPHOTERICIN B]	0.39 µg/mL (≈ 0.422 µM)		

Reference: ChEMBL document CHEMBL1154551, “Microbial transformation of benzosampangine” (2000)
